This is an account of results in paper PMC4932603, “Identification, Characterization, and X-ray Crystallographic Analysis of a Novel Type of Mannose-Specific Lectin CGL1 from the Pacific Oyster Crassostrea gigas” (Scientific Reports, 2016).

One may read the stoichiometry N as a count of units in the complex or per binding partner.

One assay has as its target T1, nCGL1 (native CGL1) (Magallana gigas, UniProt K1QRB6).
T1 construct: gene CGI_10011001; native purification from oyster bodies (mannose-Cellulofine)
The experiment in a line: isothermal titration calorimetry. Format: binding. The conditions noted are these: read-out: K / × 10^3 M^-1 (converted). From the text:
isothermal titration calorimetry on nCGL1 (native CGL1)

The target of assay [1] is CGL1 (preparation not told: native or recombinant) (Crassostrea gigas). Briefly: dynamic light scattering (DLS) + other: small angle X-ray scattering (SAXS); in an aqueous solution.

`CO[C@H]1O[C@H](CO)[C@@H](O)[C@H](O)[C@@H]1O` [α-MeMan]: at nCGL1 (native CGL1), the Kd is 671 µM. Regarding “CGL1 (preparation not told: native or recombinant) (natural protein)”, the stoichiometry N in assay [1] was 2.
